{
  "source": "BigSolDB 2.1",
  "data": [
    {"smiles": "NNC(=O)c1ccncc1", "values": [
      {"measurement": "solubility (mole fraction)", "setting": "in acetone, 301 K", "result": 0.00946},
      {"measurement": "solubility (mole fraction)", "setting": "in acetone, 303 K", "result": 0.0104},
      {"measurement": "solubility (mole fraction)", "setting": "in acetone, 308 K", "result": 0.0136},
      {"measurement": "solubility (mole fraction)", "setting": "in acetone, 311 K", "result": 0.016},
      {"measurement": "solubility (mole fraction)", "setting": "in acetone, 313 K", "result": 0.0187},
      {"measurement": "solubility (mole fraction)", "setting": "in ethanol, 301 K", "result": 0.00545},
      {"measurement": "solubility (mole fraction)", "setting": "in ethanol, 303 K", "result": 0.00579},
      {"measurement": "solubility (mole fraction)", "setting": "in ethanol, 308 K", "result": 0.00717},
      {"measurement": "solubility (mole fraction)", "setting": "in ethanol, 311 K", "result": 0.00816},
      {"measurement": "solubility (mole fraction)", "setting": "in ethanol, 313 K", "result": 0.00887},
      {"measurement": "solubility (mole fraction)", "setting": "in ethyl acetate, 301 K", "result": 0.00159},
      {"measurement": "solubility (mole fraction)", "setting": "in ethyl acetate, 303 K", "result": 0.00172},
      {"measurement": "solubility (mole fraction)", "setting": "in ethyl acetate, 308 K", "result": 0.00206},
      {"measurement": "solubility (mole fraction)", "setting": "in ethyl acetate, 311 K", "result": 0.00225},
      {"measurement": "solubility (mole fraction)", "setting": "in ethyl acetate, 313 K", "result": 0.00251},
      {"measurement": "solubility (mole fraction)", "setting": "in methanol, 301 K", "result": 0.0107},
      {"measurement": "solubility (mole fraction)", "setting": "in methanol, 303 K", "result": 0.0114},
      {"measurement": "solubility (mole fraction)", "setting": "in methanol, 308 K", "result": 0.0137},
      {"measurement": "solubility (mole fraction)", "setting": "in methanol, 311 K", "result": 0.0154},
      {"measurement": "solubility (mole fraction)", "setting": "in methanol, 313 K", "result": 0.0163}
    ]}
  ]
}
